From patent US20050009005A1, “Methods of using quantitative lipid metabolome data” (Lipomics Technologies, Inc., priority 2001, published 2005)
Read-outs that look alike come from different tables or passages of the source.

System: de novo fatty acid synthesis
[1] = Adipose, CE, mean of treated mice
[2] = Adipose, FFA, mean of treated mice
[3] = Adipose, PL, mean of treated mice
[4] = Adipose, TAG, mean of treated mice
[5] = Heart, CE, mean of treated mice
[6] = Heart, FFA, mean of treated mice
[7] = Heart, PC, mean of treated mice
[8] = Heart, PS/I, mean of treated mice
[9] = Heart, TAG, mean of treated mice
[10] = Liver, CE, mean of treated mice

CN(CCOc1ccc(CC2SC(=O)NC2=O)cc1)c1ccccn1 (centres unmarked) [rosiglitazone]
14:0 (Adipose, CE, mean): 3.8 percentage of total fatty acids within each lipid class | 16:0 (Adipose, CE, mean): 10.9 percentage of total fatty acids within each lipid class | 16:1n7 (Adipose, CE, mean): 7.1 percentage of total fatty acids within each lipid class | 18:0 (Adipose, CE, mean): 3.8 percentage of total fatty acids within each lipid class | 18:1n7 (Adipose, CE, mean): 1.3 percentage of total fatty acids within each lipid class | 18:1n9 (Adipose, CE, mean): 31.8 percentage of total fatty acids within each lipid class | Saturates (Adipose, CE, mean): 24.3 percentage of total fatty acids within each lipid class | Total (Adipose, CE, mean): 100.0 percentage of total fatty acids within each lipid class | Total n7 (Adipose, CE, mean): 8.4 percentage of total fatty acids within each lipid class | Total n9 (Adipose, CE, mean): 33.7 percentage of total fatty acids within each lipid class | 14:0 [1]: 131.5 nanomoles per gram | 16:0 [1]: 361.1 nanomoles per gram | 16:1n7 [1]: 248.8 nanomoles per gram | 18:0 [1]: 128.3 nanomoles per gram | 18:1n7 [1]: 44.3 nanomoles per gram | 18:1n9 [1]: 1135.7 nanomoles per gram | Saturates [1]: 833.5 nanomoles per gram | Total n7 [1]: 293.1 nanomoles per gram | Total n9 [1]: 1202.9 nanomoles per gram | Total nMole of [1]: 3405.8 nanomoles per gram | 14:0 (Adipose, FFA, mean): 3.0 percentage of total fatty acids within each lipid class | 16:0 (Adipose, FFA, mean): 16.7 percentage of total fatty acids within each lipid class | 16:1n7 (Adipose, FFA, mean): 8.0 percentage of total fatty acids within each lipid class | 18:0 (Adipose, FFA, mean): 3.6 percentage of total fatty acids within each lipid class | 18:1n7 (Adipose, FFA, mean): 3.4 percentage of total fatty acids within each lipid class | 18:1n9 (Adipose, FFA, mean): 30.4 percentage of total fatty acids within each lipid class | Saturates (Adipose, FFA, mean): 23.9 percentage of total fatty acids within each lipid class | Total (Adipose, FFA, mean): 100.0 percentage of total fatty acids within each lipid class | Total n9 (Adipose, FFA, mean): 30.8 percentage of total fatty acids within each lipid class | 14:0 [2]: 391.9 nanomoles per gram | 16:0 [2]: 2241.1 nanomoles per gram | 16:1n7 [2]: 1073.7 nanomoles per gram | 18:0 [2]: 487.0 nanomoles per gram | 18:1n7 [2]: 461.5 nanomoles per gram | 18:1n9 [2]: 4055.1 nanomoles per gram | Saturates [2]: 3203.6 nanomoles per gram | Total n7 [2]: 1535.2 nanomoles per gram | Total n9 [2]: 4117.3 nanomoles per gram | Total nMole of [2]: 13373.4 nanomoles per gram | 14:0 (Adipose, PL, mean): 1.6 percentage of total fatty acids within each lipid class | 16:0 (Adipose, PL, mean): 18.8 percentage of total fatty acids within each lipid class | 16:1n7 (Adipose, PL, mean): 3.6 percentage of total fatty acids within each lipid class | 18:0 (Adipose, PL, mean): 13.7 percentage of total fatty acids within each lipid class | 18:1n7 (Adipose, PL, mean): 2.8 percentage of total fatty acids within each lipid class | 18:1n9 (Adipose, PL, mean): 18.0 percentage of total fatty acids within each lipid class | Saturates (Adipose, PL, mean): 36.3 percentage of total fatty acids within each lipid class | Total (Adipose, PL, mean): 100.0 percentage of total fatty acids within each lipid class | Total n7 (Adipose, PL, mean): 6.5 percentage of total fatty acids within each lipid class | Total n9 (Adipose, PL, mean): 19.2 percentage of total fatty acids within each lipid class | 14:0 [3]: 152.1 nanomoles per gram | 16:0 [3]: 1706.0 nanomoles per gram | 16:1n7 [3]: 338.8 nanomoles per gram | 18:0 [3]: 1240.0 nanomoles per gram | 18:1n7 [3]: 261.8 nanomoles per gram | 18:1n9 [3]: 1679.9 nanomoles per gram | Saturates [3]: 3281.6 nanomoles per gram | Total n7 [3]: 600.6 nanomoles per gram | Total n9 [3]: 1787.7 nanomoles per gram | Total nMole of [3]: 4559.5 nanomoles per gram | 14:0 (Adipose, TAG, mean): 1.8 percentage of total fatty acids within each lipid class | 16:0 (Adipose, TAG, mean): 22.5 percentage of total fatty acids within each lipid class | 16:1n7 (Adipose, TAG, mean): 7.3 percentage of total fatty acids within each lipid class | 18:0 (Adipose, TAG, mean): 1.5 percentage of total fatty acids within each lipid class | 18:1n7 (Adipose, TAG, mean): 3.2 percentage of total fatty acids within each lipid class | 18:1n9 (Adipose, TAG, mean): 30.5 percentage of total fatty acids within each lipid class | Saturates (Adipose, TAG, mean): 26.2 percentage of total fatty acids within each lipid class | Total (Adipose, TAG, mean): 100.0 percentage of total fatty acids within each lipid class | Total n7 (Adipose, TAG, mean): 10.5 percentage of total fatty acids within each lipid class | Total n9 (Adipose, TAG, mean): 30.8 percentage of total fatty acids within each lipid class | 14:0 [4]: 52712.2 nanomoles per gram | 16:0 [4]: 650079.8 nanomoles per gram | 16:1n7 [4]: 210006.6 nanomoles per gram | 18:0 [4]: 43888.4 nanomoles per gram | 18:1n7 [4]: 93310.6 nanomoles per gram | 18:1n9 [4]: 880178.1 nanomoles per gram | Saturates [4]: 755758.5 nanomoles per gram | Total n7 [4]: 303317.2 nanomoles per gram | Total n9 [4]: 891269.3 nanomoles per gram | Total nMole of [4]: 962282.9 nanomoles per gram | 14:0 (Heart, CE, mean): 4.3 percentage of total fatty acids within each lipid class | 16:0 (Heart, CE, mean): 14.6 percentage of total fatty acids within each lipid class | 16:1n7 (Heart, CE, mean): 3.4 percentage of total fatty acids within each lipid class | 18:0 (Heart, CE, mean): 6.4 percentage of total fatty acids within each lipid class | 18:1n7 (Heart, CE, mean): 1.3 percentage of total fatty acids within each lipid class | 18:1n9 (Heart, CE, mean): 25.5 percentage of total fatty acids within each lipid class | 14:0 [5]: 56.4 nanomoles per gram | 16:0 [5]: 198.8 nanomoles per gram | 16:1n7 [5]: 45.4 nanomoles per gram | 18:0 [5]: 89.0 nanomoles per gram | 18:1n7 [5]: 19.3 nanomoles per gram | 18:1n9 [5]: 370.9 nanomoles per gram | Saturates [5]: 379.2 nanomoles per gram | Total n7 [5]: 64.8 nanomoles per gram | Total n9 [5]: 383.4 nanomoles per gram | Total nMole of [5]: 1358.5 nanomoles per gram | 14:0 (Heart, CL, mean): 0.2 percentage of total fatty acids within each lipid class | 16:0 (Heart, CL, mean): 1.3 percentage of total fatty acids within each lipid class | 16:1n7 (Heart, CL, mean): 2.0 percentage of total fatty acids within each lipid class | 18:0 (Heart, CL, mean): 2.4 percentage of total fatty acids within each lipid class | 18:1n7 (Heart, CL, mean): 3.0 percentage of total fatty acids within each lipid class | 18:1n9 (Heart, CL, mean): 5.0 percentage of total fatty acids within each lipid class | Saturates (Heart, CL, mean): 4.1 percentage of total fatty acids within each lipid class | Total (Heart, CL, mean): 100.0 percentage of total fatty acids within each lipid class | Total n7 (Heart, CL, mean): 5.1 percentage of total fatty acids within each lipid class | Total n9 (Heart, CL, mean): 5.3 percentage of total fatty acids within each lipid class | 14:0 (Heart, FFA, mean): 2.1 percentage of total fatty acids within each lipid class | 16:0 (Heart, FFA, mean): 22.6 percentage of total fatty acids within each lipid class | 16:1n7 (Heart, FFA, mean): 3.0 percentage of total fatty acids within each lipid class | 18:0 (Heart, FFA, mean): 8.3 percentage of total fatty acids within each lipid class | 18:1n7 (Heart, FFA, mean): 3.6 percentage of total fatty acids within each lipid class | 18:1n9 (Heart, FFA, mean): 18.7 percentage of total fatty acids within each lipid class | Saturates (Heart, FFA, mean): 33.8 percentage of total fatty acids within each lipid class | Total (Heart, FFA, mean): 100.0 percentage of total fatty acids within each lipid class | Total n7 (Heart, FFA, mean): 6.6 percentage of total fatty acids within each lipid class | Total n9 (Heart, FFA, mean): 19.4 percentage of total fatty acids within each lipid class | 14:0 [6]: 52.4 nanomoles per gram | 16:0 [6]: 560.7 nanomoles per gram | 16:1n7 [6]: 73.6 nanomoles per gram | 18:0 [6]: 206.9 nanomoles per gram | 18:1n7 [6]: 90.0 nanomoles per gram | 18:1n9 [6]: 466.4 nanomoles per gram | Saturates [6]: 839.0 nanomoles per gram | Total n7 [6]: 163.6 nanomoles per gram | Total n9 [6]: 483.8 nanomoles per gram | Total nMole of [6]: 2482.9 nanomoles per gram | 14:0 (Heart, PC, mean): 0.2 percentage of total fatty acids within each lipid class | 16:0 (Heart, PC, mean): 29.2 percentage of total fatty acids within each lipid class | 16:1n7 (Heart, PC, mean): 1.0 percentage of total fatty acids within each lipid class | 18:0 (Heart, PC, mean): 11.6 percentage of total fatty acids within each lipid class | 18:1n7 (Heart, PC, mean): 4.0 percentage of total fatty acids within each lipid class | 18:1n9 (Heart, PC, mean): 10.7 percentage of total fatty acids within each lipid class | Saturates (Heart, PC, mean): 41.4 percentage of total fatty acids within each lipid class | Total (Heart, PC, mean): 100.0 percentage of total fatty acids within each lipid class | Total n7 (Heart, PC, mean): 5.0 percentage of total fatty acids within each lipid class | Total n9 (Heart, PC, mean): 10.9 percentage of total fatty acids within each lipid class | 14:0 [7]: 68.3 nanomoles per gram | 16:0 [7]: 8497.6 nanomoles per gram | 16:1n7 [7]: 289.1 nanomoles per gram | 18:0 [7]: 3392.4 nanomoles per gram | 18:1n7 [7]: 1154.7 nanomoles per gram | 18:1n9 [7]: 3120.1 nanomoles per gram | Saturates [7]: 12059.6 nanomoles per gram | Total n7 [7]: 1443.8 nanomoles per gram | Total n9 [7]: 3184.2 nanomoles per gram | Total nMole of [7]: 14579.5 nanomoles per gram | 14:0 (Heart, PS/I, mean): 0.3 percentage of total fatty acids within each lipid class | 16:0 (Heart, PS/I, mean): 5.2 percentage of total fatty acids within each lipid class | 16:1n7 (Heart, PS/I, mean): 0.4 percentage of total fatty acids within each lipid class | 18:0 (Heart, PS/I, mean): 33.6 percentage of total fatty acids within each lipid class | 18:1n7 (Heart, PS/I, mean): 1.4 percentage of total fatty acids within each lipid class | 18:1n9 (Heart, PS/I, mean): 5.1 percentage of total fatty acids within each lipid class | Saturates (Heart, PS/I, mean): 39.7 percentage of total fatty acids within each lipid class | Total (Heart, PS/I, mean): 100.0 percentage of total fatty acids within each lipid class | Total n7 (Heart, PS/I, mean): 1.8 percentage of total fatty acids within each lipid class | Total n9 (Heart, PS/I, mean): 5.8 percentage of total fatty acids within each lipid class | 14:0 [8]: 25.3 nanomoles per gram | 16:0 [8]: 515.0 nanomoles per gram | 16:1n7 [8]: 36.4 nanomoles per gram | 18:0 [8]: 3334.5 nanomoles per gram | 18:1n7 [8]: 143.9 nanomoles per gram | 18:1n9 [8]: 504.6 nanomoles per gram | Saturates [8]: 3945.4 nanomoles per gram | Total n7 [8]: 180.2 nanomoles per gram | Total n9 [8]: 572.9 nanomoles per gram | Total nMole of [8]: 4967.1 nanomoles per gram | 14:0 (Heart, TAG, mean): 3.0 percentage of total fatty acids within each lipid class | 16:0 (Heart, TAG, mean): 26.0 percentage of total fatty acids within each lipid class | 16:1n7 (Heart, TAG, mean): 4.9 percentage of total fatty acids within each lipid class | 18:0 (Heart, TAG, mean): 3.5 percentage of total fatty acids within each lipid class | 18:1n7 (Heart, TAG, mean): 3.2 percentage of total fatty acids within each lipid class | 18:1n9 (Heart, TAG, mean): 26.2 percentage of total fatty acids within each lipid class | 14:0 [9]: 160.8 nanomoles per gram | 16:0 [9]: 1597.3 nanomoles per gram | 16:1n7 [9]: 316.4 nanomoles per gram | 18:0 [9]: 173.5 nanomoles per gram | 18:1n7 [9]: 210.7 nanomoles per gram | 18:1n9 [9]: 1775.7 nanomoles per gram | Saturates [9]: 1993.9 nanomoles per gram | Total n7 [9]: 527.1 nanomoles per gram | Total n9 [9]: 1813.1 nanomoles per gram | Total nMole of [9]: 2014.7 nanomoles per gram | 14:0 (Liver, CE, mean): 1.9 percentage of total fatty acids within each lipid class | 16:0 (Liver, CE, mean): 48.0 percentage of total fatty acids within each lipid class | 16:1n7 (Liver, CE, mean): 11.8 percentage of total fatty acids within each lipid class | 18:0 (Liver, CE, mean): 3.5 percentage of total fatty acids within each lipid class | 18:1n7 (Liver, CE, mean): 2.3 percentage of total fatty acids within each lipid class | 18:1n9 (Liver, CE, mean): 19.9 percentage of total fatty acids within each lipid class | Saturates (Liver, CE, mean): 54.6 percentage of total fatty acids within each lipid class | Total (Liver, CE, mean): 100.0 percentage of total fatty acids within each lipid class | Total n7 (Liver, CE, mean): 14.1 percentage of total fatty acids within each lipid class | Total n9 (Liver, CE, mean): 20.5 percentage of total fatty acids within each lipid class | 14:0 [10]: 110.6 nanomoles per gram | 16:0 [10]: 2765.2 nanomoles per gram | 16:1n7 [10]: 678.5 nanomoles per gram
